Legend:
mammalian retina = conditions: after exposure to damaging light; cited from earlier work
[1] = test system: bovine and primate retinal cell cultures; conditions: 160 μM crocin; cited from earlier work
primary RPE cells = test: Toxicity testing on RPE cell cultures (MTT assay); conditions: 24 hours of exposure; crocin 10 μM to 500 μM, resveratrol 0.1 μM to 25 μM
Experimental: (§1) When implementing the method, concentrations of 10 μM to 500 μM crocin and 0.1 μM to 25 μM resveratrol are beneficially employed for toxicity characterization. Moreover, concentrations of 100 μM crocin and 1 μM resveratrol are beneficially employed to investigate synergistic effects against light-induced phototoxicity with a final DMSO concentration of 0.1%. Beneficially, DMSO is added to cultures at 0.1% (v/v) as a solvent control.
Dulbecco-modified Eagle medium (DMEM, obtainable from Biochrom, Berlin, Germany) supplemented with 10% fetal calf serum (FCS, obtainable from Biochrom, Berlin, Germany) was used as the cell culture medium when undertaking the experimental tests.
For determining cell survival rate after the aforesaid illumination, the tetrazolium dye-reduction assay (MTT); 3-[4,5-methylthiazol-2-yl]-2,2-diphenyl tetrazolium bromide) is beneficially used for determining the cell survival rate after aforesaid illumination has been applied. […] The serum-free cell culture medium is beneficially removed, the cells then washed with PBS, and thereafter 1000 μL of MTT solution (1.5 mL MTT stock, 2 mg/mL in PBS, together with 28.5 mL MEM) added to each well in the cell culture. […] Thereafter, absorption is beneficially measured by employing a scanning multiwell spectrophotometer operating at an interrogating radiation wavelength of 550 nm (apparatus obtainable from Molecular Probes). […]

primary human RPE cells = test: Light-induced phototoxicity in primary human RPE cells, viability by MTT assay; format: cell-based; conditions: pre-treatment 100 μM crocin, 1 μM resveratrol or both; 300 mW/cm^2 for 60 min; FIG. 3
Experimental: as §1
For preparing the cell culture medium, primary RPE cells from three human donors (obtained 3 to 10 hours postmortem) without any history of eye disease were obtained from the Eye Bank of Ludwig Maximilian University. Dulbecco-modified Eagle medium (DMEM, obtainable from Biochrom, Berlin, Germany) supplemented with 10% fetal calf serum (FCS, obtainable from Biochrom, Berlin, Germany) was used as the cell culture medium when undertaking the experimental tests. […]
The aforesaid illumination is beneficially obtained from a spot-light source (LC-8, obtainable from Hamamatsu Photonics, Japan), although other illumination sources are optionally employed. […] For obtaining accurate experimental measurements, the illumination power and spectral range of illumination employed for the tests are beneficially measured using a spectrometer (C10083MD, obtainable from Hamamatsu Photonics), although other measuring instruments may be optionally employed. […]

mouse retina = conditions: in vitro and in vivo, sirtuin-independent pathway; cited from earlier work
human RPE cells = conditions: cited from earlier work
[2] = test system: vascular endothelial cells; conditions: cited from earlier work
retina = conditions: oral consumption in mice; cited from earlier work

SMILES	retinal morphology and function (mammalian retina)	photoreceptors surviving light exposure [1]	toxic effects in respect of RPE cell cultures (primary RPE cells)	decrease in viability of RPE cells after light exposure compared with cells not treated (primary human RPE cells)	pathological angiogenesis (mouse retina)	effect on acrolein-induced oxidative stress (human RPE cells)	proliferation and migration of vascular endothelial cells [2]	retinal degradation related to light damage (retina)
CC1=C(/C=C/C(C)=C/C=C/C(C)=C/C=C/C=C(C)/C=C/C=C(C)/C=C/C2=C(C)CCCC2(C)C)C(C)(C)CCC1 [beta-carotene]	ineffective for maintaining retinal function, and only improved morphology							
CC(/C=C/C=C(\C)C(=O)O[C@@H]1O[C@H](CO[C@@H]2O[C@H](CO)[C@@H](O)[C@H](O)[C@H]2O)[C@@H](O)[C@H](O)[C@H]1O)=C\C=C\C=C(C)\C=C\C=C(/C)C(=O)O[C@@H]1O[C@H](CO[C@@H]2O[C@H](CO)[C@@H](O)[C@H](O)[C@H]2O)[C@@H](O)[C@H](O)[C@H]1O [crocin]		more than 90%	no significant toxic effects	significantly smaller decrease in viability				
Oc1ccc(/C=C/c2cc(O)cc(O)c2)cc1 [resveratrol, 3,5,4″-trihydroxystilbene]				significantly smaller decrease in viability	inhibit pathological angiogenesis	protective effects	inhibiting proliferation and migration	capable of preventing retinal degradation
